Positions count from the first letter of the chain named. *1 amine or outer side, *2 acyl side, *3 side chain or, on linkers, in order; H or OH if unused. Where a SMILES comes first, the peptide text is derived from it. γGlu = O=C(O)[CH](CCC(=O)[*:2])N[*:1]
How the values were obtained:
[1] = molecular target: T1, human CaSR P39S mutant (Homo sapiens, UniProt P41180, P39S); test: Calcium mobilization assay, CaSR P39S mutant; format: cell-based; conditions: for Response in calcium mobilization assay: in words
T1 construct: expressed in transfected cells; host or cells: PEAKrapid cells (ATCC), pcDNA 3.1, transient transfection
T1 sequence (P41180 20-1078 P39S): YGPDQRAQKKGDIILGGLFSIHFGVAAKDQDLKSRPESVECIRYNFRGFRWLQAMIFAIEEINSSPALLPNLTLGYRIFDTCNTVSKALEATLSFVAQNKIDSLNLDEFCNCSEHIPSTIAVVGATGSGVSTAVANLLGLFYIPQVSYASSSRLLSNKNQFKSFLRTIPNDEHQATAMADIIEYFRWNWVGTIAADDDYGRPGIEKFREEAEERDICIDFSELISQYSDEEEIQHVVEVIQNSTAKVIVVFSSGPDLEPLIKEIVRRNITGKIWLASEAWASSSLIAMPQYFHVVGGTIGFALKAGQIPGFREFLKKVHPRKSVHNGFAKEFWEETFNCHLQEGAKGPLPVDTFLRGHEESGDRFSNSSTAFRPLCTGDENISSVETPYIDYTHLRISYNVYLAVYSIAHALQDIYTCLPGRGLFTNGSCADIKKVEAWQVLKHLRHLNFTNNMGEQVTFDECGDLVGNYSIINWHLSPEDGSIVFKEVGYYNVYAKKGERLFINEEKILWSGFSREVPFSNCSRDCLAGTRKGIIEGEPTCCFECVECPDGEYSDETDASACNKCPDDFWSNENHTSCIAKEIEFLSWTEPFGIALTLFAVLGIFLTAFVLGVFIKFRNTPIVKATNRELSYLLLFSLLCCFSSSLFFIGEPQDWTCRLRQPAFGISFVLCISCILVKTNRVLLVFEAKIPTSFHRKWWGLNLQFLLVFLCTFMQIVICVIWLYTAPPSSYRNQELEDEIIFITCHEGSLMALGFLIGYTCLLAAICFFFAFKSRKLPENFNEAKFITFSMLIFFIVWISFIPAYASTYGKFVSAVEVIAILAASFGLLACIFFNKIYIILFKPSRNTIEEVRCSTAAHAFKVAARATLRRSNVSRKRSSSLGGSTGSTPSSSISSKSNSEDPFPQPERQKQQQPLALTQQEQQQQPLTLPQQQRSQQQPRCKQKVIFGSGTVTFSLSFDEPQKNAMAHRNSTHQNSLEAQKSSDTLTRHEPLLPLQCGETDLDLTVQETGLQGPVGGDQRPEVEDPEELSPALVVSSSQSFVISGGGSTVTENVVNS
Experimental: (§1) The CaSR receptor responsiveness was assessed by using PEAK^rapid cells (ATCC, Manassas, VA, USA) transiently transfected with the receptor DNA by the method reported by Kitajima et al.[6]. Briefly, human CaSR or its mutant cDNA with a signal sequence (MAFYSCCWVLLALTWHTSA) followed by FLAG-tag (DYKDDDDK) were inserted into pcDNA 3.1 expression vectors in Opti-MEM I medium (Thermo Fisher Scientific), mixed with FuGENE 6 (Roche), and poured onto PEAK^rapid cells grown at a submaximal concentration. After culturing for 24 h in 96-well plates, the cells were incubated with 5 µM Calcium-5 solution (Calcium-5 assay kit, Molecular Devices) for 45–60 min, and measurements were performed using a plate reader (FDSS/µCELL, Hamamatsu Photonics, Shizuoka, Japan) and its associated software. The activation of CaSR expressed in cells increases the intracellular Ca^2+ concentration, which is measured using a Ca^2+-sensitive dye. The binding of Ca^2+ to the Ca^2+-sensitive dye increases dye fluorescence, with excitation at 485 nm and emission at 525 nm. Test compounds were dissolved and administered in the assay buffer (146 mM NaCl, 1 mM MgSO4, 20 mM HEPES, 1 mM CaCl2, 2.5 mM probenecid, and 1.39 mM glucose, pH 7.4). Transiently transfected cells were challenged with compounds and compared with the vehicle alone and/or mock-transfected cells. The concentration dependence of the fluorescence intensity (influx of Ca^2+) was analyzed using the plate reader at 1 s intervals for 180 s. For the dose–response curve calculations, peak fluorescence responses after the addition of compounds were corrected for, normalized to the background fluorescence (ΔF/F = –F − F0)/F0), and baseline noise was subtracted. Dose–response curves were calculated by non-linear regression using GraphPad PRISM 8.0.

[2] = molecular target: T2, human CaSR R66E mutant (Homo sapiens, UniProt P41180, R66E); test: Calcium mobilization assay, CaSR R66E mutant; format: cell-based; conditions: for Response in calcium mobilization assay: in words
T2 construct: (N); expressed in transfected cells; host or cells: PEAKrapid cells (ATCC), pcDNA 3.1, transient transfection
T2 sequence (P41180 20-1078 R66E): T1 sequence (P41180 20-1078 P39S) with S20P, R47E
Experimental: as §1

Response in calcium mobilization assay [1]	Response in calcium mobilization assay [2]	Emax (% of wild-type values) [1]	EC50 ([1]; mean ± s.e.m., n = 3)	Emax (% of wild-type values) [2]	EC50 ([2]; mean ± s.e.m., n = 3)	Compound
no response	no response					N[C@@H](Cc1ccc(O)cc1)C(=O)O [L-Tyr, L-tyrosine]
no response	no response					CC(C)[C@H](NC(=O)CC[C@H](N)C(=O)O)C(=O)O [γ-EV, γ-glutamyl-valine]
		74.5 % of WT	7.52 ± 0.23 mM	105.0 % of WT	3.47 ± 0.4 mM	[Ca+2].[Cl-].[Cl-] [CaCl2]

Compound	Response in calcium mobilization assay [1]	Response in calcium mobilization assay [2]	Emax (% of wild-type values) [1]	EC50 ([1]; mean ± s.e.m., n = 3)	Emax (% of wild-type values) [2]	EC50 ([2]; mean ± s.e.m., n = 3)
CC(C)C(NC(=O)CCC(N)C(=O)O)C(=O)NCC(=O)O (stereo not drawn) [γ-EVG, γ-glutamyl-valyl-glycine] (γGlu-Val-Gly-OH; configuration not given here)	large decrease in the response	completely abolished the activity				
